Data reported in patent US9951064B2, “Azaindazole compounds as inhibitors of T790M containing EGFR mutants” (Genentech, Inc., priority 2013, dated 2018).
pEC50, pKi: −log10 of the molar value.

Legend:
EGFR T790M L858R = target: T1, EGFR T790M L858R (Homo sapiens, UniProt P00533, L858R/T790M); assay: EGFR T790M L858R biochemical assay (Caliper mobility shift); settings: 5 μM ATP; apparent Ki (Morrison fit) converted by Cheng-Prusoff, Km of ATP 1.3 μM
T1 construct: purchased Life Technologies PV4879
T1 sequence (P00533 25-1210 T790M/L858R): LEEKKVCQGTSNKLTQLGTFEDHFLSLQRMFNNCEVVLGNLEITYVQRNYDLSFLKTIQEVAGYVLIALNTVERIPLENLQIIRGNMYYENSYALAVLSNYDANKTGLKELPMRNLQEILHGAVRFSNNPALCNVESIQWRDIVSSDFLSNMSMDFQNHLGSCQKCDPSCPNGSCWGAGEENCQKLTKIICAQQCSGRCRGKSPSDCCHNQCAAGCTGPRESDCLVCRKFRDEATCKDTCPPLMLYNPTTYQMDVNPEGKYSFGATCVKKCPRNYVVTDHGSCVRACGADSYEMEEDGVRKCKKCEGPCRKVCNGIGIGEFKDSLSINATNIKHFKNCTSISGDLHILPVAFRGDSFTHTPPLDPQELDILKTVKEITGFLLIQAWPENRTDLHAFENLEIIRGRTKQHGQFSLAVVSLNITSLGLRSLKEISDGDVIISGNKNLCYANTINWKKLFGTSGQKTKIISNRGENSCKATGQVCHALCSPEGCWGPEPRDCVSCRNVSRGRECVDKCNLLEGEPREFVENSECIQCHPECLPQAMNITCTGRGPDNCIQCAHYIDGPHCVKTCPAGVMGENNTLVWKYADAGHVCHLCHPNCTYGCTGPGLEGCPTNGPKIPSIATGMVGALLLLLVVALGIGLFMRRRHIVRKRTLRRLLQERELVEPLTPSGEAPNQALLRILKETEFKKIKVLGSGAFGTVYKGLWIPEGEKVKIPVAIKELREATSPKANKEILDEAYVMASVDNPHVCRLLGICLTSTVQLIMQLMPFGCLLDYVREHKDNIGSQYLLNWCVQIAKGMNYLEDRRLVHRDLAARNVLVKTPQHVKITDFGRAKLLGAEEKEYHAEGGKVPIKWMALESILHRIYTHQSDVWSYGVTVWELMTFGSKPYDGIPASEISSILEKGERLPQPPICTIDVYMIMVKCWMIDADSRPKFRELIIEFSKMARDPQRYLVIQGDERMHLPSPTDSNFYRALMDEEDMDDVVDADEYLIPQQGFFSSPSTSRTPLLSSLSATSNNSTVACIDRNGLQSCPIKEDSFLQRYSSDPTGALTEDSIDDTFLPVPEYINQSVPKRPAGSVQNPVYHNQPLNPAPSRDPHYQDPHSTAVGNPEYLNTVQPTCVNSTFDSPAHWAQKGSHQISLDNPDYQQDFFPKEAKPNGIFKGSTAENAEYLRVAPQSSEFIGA
Method: (§1) The exemplified compounds described herein were tested according to the assay below. The enzyme data reported in Tables 4-5 is generally a representative of multiple experiments.
Reactions proceed for 30 minutes at room temperature (22° C.) and are terminated with 80 mM 2,2′,2″,2′″-(ethane-1,2-diyldinitrilo)tetraacetic acid (EDTA). Product is detected using the Caliper mobility shift detection method where product and substrate are electrophoretically separated and measured.

EGFR del746-750 T790M = target: T2, EGFR del746-750 T790M (Homo sapiens, UniProt P00533, DEL746-750/T790M); assay: EGFR del746-750 T790M biochemical assay (Caliper mobility shift); settings: 5 μM ATP; apparent Ki (Morrison fit) converted by Cheng-Prusoff, Km of ATP 2.1 μM; read-out: EGFR(T790M/d746-750) Ki
T2 construct: purchased Carna Biosciences 08-528
T2 sequence (P00533 with tags, fused parts or gaps DEL746-750/T790M limits assumed): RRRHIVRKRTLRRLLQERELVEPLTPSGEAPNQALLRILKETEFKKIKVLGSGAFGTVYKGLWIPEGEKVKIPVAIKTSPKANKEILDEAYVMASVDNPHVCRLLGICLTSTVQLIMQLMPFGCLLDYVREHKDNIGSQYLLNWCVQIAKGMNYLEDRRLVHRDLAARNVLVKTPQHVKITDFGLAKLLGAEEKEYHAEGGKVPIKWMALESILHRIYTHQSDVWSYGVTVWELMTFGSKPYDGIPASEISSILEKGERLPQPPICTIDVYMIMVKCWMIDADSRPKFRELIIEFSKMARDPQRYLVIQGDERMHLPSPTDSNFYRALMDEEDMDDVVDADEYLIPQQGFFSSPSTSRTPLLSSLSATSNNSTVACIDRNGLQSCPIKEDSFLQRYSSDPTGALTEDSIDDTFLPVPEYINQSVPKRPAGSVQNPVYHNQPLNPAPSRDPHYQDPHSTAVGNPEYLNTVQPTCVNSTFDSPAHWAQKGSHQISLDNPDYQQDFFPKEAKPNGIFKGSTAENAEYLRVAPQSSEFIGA
Method: as §1
Reactions proceed for 30 minutes at room temperature (22° C.) and are terminated with 80 mM 2,2′,2″,2″′-(ethane-1,2-diyldinitrilo)tetraacetic acid (EDTA). Product is detected using the Caliper mobility shift detection method where product and substrate are electrophoretically separated and measured.

[1] = test system: H1975 (EGFR T790M/L858R) cell proliferation; assay: H1975 proliferation assay (Cell Titer-Glo); type: cell-based; settings: Homo sapiens, NCI-H1975, 72 h, NCI-H1975 cells, 72 hour incubation, read-out: H1975 antiproliferative EC50
Method: H1975 Proliferation Assays
All cell culture reagents were purchased from Invitrogen/Gibco. Cells are cultured at 37° C. at 5% CO2 and split as recommended by ATCC.

[2] = target: T3, phosphor-EGFR in H1975(L585R/T790M) mutant EGFR expressing cells (Homo sapiens, UniProt P00533, L858R/T790M); assay: H1975 pEGFR MSD cellular assay; type: cell-based; settings: NCI-H1975 cells, serum starved, 1 hour compound incubation, pEGFR Tyr1068 MSD; read-out: HI975 pEGFR EC50
T3 construct: host or cells: NCI-H1975
T3 sequence (P00533 25-1210 T790M/L858R): as the sequence (P00533 25-1210 T790M/L858R) above
Method: H1975 pEGFR MSD Cellular Assays
These assays are intended for determining cellular. […] (Meso Scale Discovery Catalog# N31CB-1).
NCI-H1975 (ATCC Catalog# CRL-5908) cells are maintained in medium containing RPMI 1640, 10% FBS, 4 mM L-Glutamine, 1% Penicillin-Streptomycin, and 4.5 g/L Glucose. All cell culture reagents were purchased from Invitrogen/Gibco. Cells are cultured at 37° C. at 5% CO2 and split as recommended by ATCC.
Cell Plating and Serum Starvation:
H1975 cells are harvested and plated into sterile cell culture treated 384 well plates (Greiner catalog #781091) at a density of 30,000 cells/well in 50 ul culture medium and placed in a 37° C. at 5% CO2 incubator for six hours. After six hours, culture medium is aspirated and replaced with serum-free culture medium. Cells are then incubated with the serum-free medium overnight at 37° C. and 5% CO2.
The following day, test compounds are serially diluted in dimethyl sulfoxide (DMSO) and added to cells in serum free medium (final DMSO concentration 0.5%). Assay plates are then incubated for 1 hour at 37° C. and 5% CO2. Following 1 hour of compound incubation cells are then lysed and processed as per the MSD pEGFR assay kit protocol. Cell lysates are added to assay plates pre-coated with antibodies against phosphorylated EGFR. Phosphorylated EGFR in samples are allowed to bind to the capture antibodies overnight at 4° C. The detection antibody (anti-total EGFR, labeled with an electrochemiluminescent SULFO-TAG) is added to the bound lysate and incubated for 1 hour at room temperature. The MSD Read Buffer is added such that when a voltage is applied to the plate electrodes, the labels bound to the electrode surface emit light. The MSD Sector Instrument measures the intensity of the light, and quantitatively measures the amount of phosphorylated-EGFR in the sample. Percent inhibition of EGFR phosphorylation by varying concentrations of test compounds is calculated relative to untreated controls. EC50 values are calculated using the 4 parameter logistic nonlinear regression dose-response model.

Row | Structure (SMILES) | pKi (EGFR T790M L858R) | pKi (EGFR del746-750 T790M) | pEC50 [1] | pEC50 [2]
1 | CC(O)C(=O)N1CCN(c2nn(C(C)C)c3cc(Nc4ccnc(N5CCC(C)(O)CC5)n4)ncc23)CC1 (stereo not drawn) [Example 136, 2-Hydroxy-1-(4-(6-(2-(4-hydroxy-4-methylpiperidin-1-yl)pyrimidin-4-ylamino)-1-isopropyl-1H-pyrazolo[4,3-c]pyridin-3-yl)piperazin-1-yl)propan-1-one] | 7.97 | 7.40 |  | 
2 | CC(C)n1nc(N2CCN(C(=O)CO)CC2)c2cnc(Nc3ccnc(N4CCC(C)(O)CC4)n3)cc21 [Example 135, 2-Hydroxy-1-(4-(6-(2-(4-hydroxy-4-methylpiperidin-1-yl)pyrimidin-4-ylamino)-1-isopropyl-1H-pyrazolo[4,3-c]pyridin-3-yl)piperazin-1-yl)ethanone] | 7.99 | 7.33 |  | 
3 | CC(C)n1nc(NCCC(N)=O)c2cnc(Nc3ccnc(-c4cnn(S(=O)(=O)C5CC5)c4)n3)cc21 [Example 47, 3-(6-(2-(1-(cyclopropylsulfonyl)-1H-pyrazol-4-yl)pyrimidin-4-ylamino)-1-isopropyl-1H-pyrazolo[4,3-c]pyridin-3-ylamino)propanamide] | 9.10 |  | 5.40 | 6.06
4 | CC(C)n1nc(N[C@H]2CCOC2)c2cnc(Nc3ccnc(-c4cnn(S(=O)(=O)C5CC5)c4)n3)cc21 [Example 39, (S)-N6-(2-(1-(cyclopropylsulfonyl)-1H-pyrazol-4-yl)pyrimidin-4-yl)-1-isopropyl-N3-(tetrahydrofuran-3-yl)-1H-pyrazolo[4,3-c]pyridine-3,6-diamine] | 8.96 |  | 6.43 | 7.15
5 | CC(C)n1nc(N2CC(C(=O)N(C)C)C2)c2cnc(Nc3ccnc(N4CCC(O)C(C)(C)C4)n3)cc21 (stereo not drawn) [Example 56, 1-(6-(2-(4-hydroxy-3,3-dimethylpiperidin-1-yl)pyrimidin-4-ylamino)-1-isopropyl-1H-pyrazolo[4,3-c]pyridin-3-yl)-N,N-dimethylazetidine-3-carboxamide] | 8.92 |  | 6.46 | 7.51
6 | CC(C)n1ncc2cnc(Nc3ccnc(N4CCC(O)C(C)(C)C4)n3)cc21 (stereo not drawn) [Example 33, 1-(4-((1-isopropyl-1H-pyrazolo[4,3-c]pyridin-6-yl)amino)pyrimidin-2-yl)-3,3-dimethylpiperidin-4-ol] | 8.12 |  | 6.96 | 5.99
7 | CC(C)Nc1nn(C(C)C)c2cc(Nc3ccnc(-c4cnn(S(=O)(=O)C5CC5)c4)n3)ncc12 [Example 46, N^6-(2-(1-(cyclopropylsulfonyl)-1H-pyrazol-4-yl)pyrimidin-4-yl)-N^3,1-diisopropyl-1H-pyrazolo[4,3-c]pyridine-3,6-diamine] | 8.57 |  | 6.02 | 6.81
8 | CC(C)n1nc(N2CCCC2)c2cnc(Nc3ccnc(-c4cnn(CC5CC5)c4)n3)cc21 [Example 31, N-(2-(1-(cyclopropylmethyl)-1H-pyrazol-4-yl)pyrimidin-4-yl)-1-isopropyl-3-(pyrrolidin-1-yl)-1H-pyrazolo[4,3-c]pyridin-6-amine] | 8.85 |  | 5.97 | 6.94
9 | CC(C)n1nc(NC2CCOCC2)c2cnc(Nc3ccnc(-c4cnn(S(=O)(=O)C5CC5)c4)n3)cc21 [Example 52, N^6-(2-(1-(cyclopropylsulfonyl)-1H-pyrazol-4-yl)pyrimidin-4-yl)-1-isopropyl-N^3-(tetrahydro-2H-pyran-4-yl)-1H-pyrazolo[4,3-c]pyridine-3,6-diamine] | 8.66 |  | 5.95 | 7.05
10 | CC(C)n1nc(N2CCN=C2O)c2cnc(Nc3ccnc(-c4cnn(S(=O)(=O)C5CC5)c4)n3)cc21 [Example 43, 1-(6-(2-(1-(cyclopropylsulfonyl)-1H-pyrazol-4-yl)pyrimidin-4-ylamino)-1-isopropyl-1H-pyrazolo[4,3-c]pyridin-3-yl)-4,5-dihydro-1H-imidazol-2-ol] | 9.05 |  | 6.63 | 7.43
11 | CCC(C)n1nc(N2CC(C(C)(C)O)C2)c2cnc(Nc3ccnc(N4CCC(O)C(C)(C)C4)n3)cc21 (mixture of isomers) [Example 12, 1-(4-((1-(sec-Butyl)-3-(3-(2-hydroxypropan-2-yl)azetidin-1-yl)-1H-pyrazolo[4,3-c]pyridin-6-yl)amino)pyrimidin-2-yl)-3,3-dimethylpiperidin-4-ol] | 8.66 |  | 6.54 | 7.52
12 | CCC(C)n1nc(N2CCNC2=O)c2cnc(Nc3ccnc(N4CC[C@@H](OC)[C@@H](F)C4)n3)cc21 (mixture of isomers) [Example 26, (±)-1-(1-(sec-Butyl)-6-((2-(cis-3-fluoro-4-methoxypiperidin-1-yl)pyrimidin-4-yl)amino)-1H-pyrazolo[4,3-c]pyridin-3-yl)imidazolidin-2-one] | 9.22 |  | 6.97 | 7.84

Other lines, results leading:

Row | pKi (EGFR T790M L858R) | pKi (EGFR del746-750 T790M) | pEC50 [1] | pEC50 [2] | Structure (SMILES)
13 |  | 9.10 | 6.67 |  | COCC1CN(c2nn(C(C)C)c3cc(Nc4ccnc(-c5cnn(S(=O)(=O)C6CC6)c5)n4)ncc23)C1 [Example 152, N-(2-(1-(Cyclopropylsulfonyl)-1H-pyrazol-4-yl)pyrimidin-4-yl)-1-isopropyl-3-(3-(methoxymethyl)azetidin-1-yl)-1H-pyrazolo[4,3-c]pyridin-6-amine]
14 | 8.96 |  | 6.62 | 7.90 | CC(C)n1nc(N2CC(O)C(F)C2)c2cnc(Nc3ccnc(-c4cnn(S(=O)(=O)C5CC5)c4)n3)cc21 (stereo not drawn) [Example 42, 1-(6-(2-(1-(cyclopropylsulfonyl)-1H-pyrazol-4-yl)pyrimidin-4-ylamino)-1-isopropyl-1H-pyrazolo[4,3-c]pyridin-3-yl)-trans-4-fluoropyrrolidin-3-ol]
15 | 8.72 |  | 6.57 | 7.13 | CC(C)n1nc(N2CCOCC2)c2cnc(Nc3ccnc(-c4cnn(S(=O)(=O)C5CC5)c4)n3)cc21 [Example 51, N-(2-(1-(cyclopropylsulfonyl)-1H-pyrazol-4-yl)pyrimidin-4-yl)-1-isopropyl-3-morpholino-1H-pyrazolo[4,3-c]pyridin-6-amine]
16 | 6.22 |  | 5.69 | 6.22 | CC(C)n1nc(N2CCS(=O)(=O)CC2)c2cnc(Nc3ccnc(-c4cnn(S(=O)(=O)C5CC5)c4)n3)cc21 [Example 1, 4-(6-((2-(1-(Cyclopropylsulfonyl)-1H-pyrazol-4-yl)pyrimidin-4-yl)amino)-1-isopropyl-1H-pyrazolo[4,3-c]pyridin-3-yl)thiomorpholine 1,1-dioxide]
17 | > 9.22 |  | 6.03 | 6.84 | CC(C)n1nc(N2CC(C(N)=O)C2)c2cnc(Nc3ccnc(-c4cnn(S(=O)(=O)C5CC5)c4)n3)cc21 [Example 55, 1-(6-(2-(1-(cyclopropylsulfonyl)-1H-pyrazol-4-yl)pyrimidin-4-ylamino)-1-isopropyl-1H-pyrazolo[4,3-c]pyridin-3-yl)azetidine-3-carboxamide]
18 | 9.10 |  | 6.92 | 7.80 | CC(C)n1nc(N2CC[C@@H](C#N)C2)c2cnc(Nc3ccnc(-c4cnn(S(=O)(=O)C5CC5)c4)n3)cc21 [Example 28, (R)-1-(6-((2-(1-(Cyclopropylsulfonyl)-1H-pyrazol-4-yl)pyrimidin-4-yl)amino)-1-isopropyl-1H-pyrazolo[4,3-c]pyridin-3-yl)pyrrolidine-3-carbonitrile]
